Laboratory results as given in paper PMC6261997, “Synergistic enzymatic and bioorthogonal reactions for selective prodrug activation in living systems” (Nature Communications, 2018).

Columns and labels:
Saos-2 cells = test: Clonogenic assay, Saos-2 cells; type: cell-based; conditions: pre-treated with 500 μM 2 for 6 h
Protocol: (§1) Supplementary Figure 17. Clonogenic assay of different cell lines before and after treatment with 2. HeLa cells, HUVECs and Saos-2 cells were seeded at density of 400 cells per well, CCC-HEH-2 cells were seeded at density of 200 cells per well. Cells were incubated with 500 µM 2 for 6 h in the treatment groups. Cells were not treated with compound 2 in the control groups. Colonies were harvest approximately 10 days after seeding. Scale bar, 10 mm.
(§2) Supplementary Figure 18. Cytotoxicity of activated Dox against HeLa cells and HUVECs. HeLa cells or HUVECs at the density of 3x10^3 cells per well were incubated with 100 µL of pre-warmed medium containing compound 2 at 300 or 500 µM for 6 h. After washing with PBS, 100 µL of 0.0001-10 µM TCO-Dox was added. After 72 h, cell proliferation was assessed by the MTT assay (n= 6). Error bars indicate standard […]
(§3) Supplementary Figure 19. […] At each time point, the remaining 2, corresponding generated 3 and remaining TCO-Dox were determined by UPLC-MS/MS. […]
(§4) Clonogenic assay of cells in vitro: Clonogenic assay was performed according to the standard protocol.6 2×10^5 attached cells were treated with 500 µM of 2 for 6 h in culture dishes. Cells were then detached, re-suspended in cultural medium and counted accurately. […]
(§5) The glutaraldehyde crystal violet mixture was removed carefully. […] The number of the colonies was counted using a stereomicroscope. […]

CCC-HEH-2 cells = test: Clonogenic assay, CCC-HEH-2 cells; type: cell-based, human; conditions: pre-treated with 500 μM 2 for 6 h
Protocol: as §1, §2, §3, §4, §5

HUVECs = test: Intracellular Tz accumulation by fluorescence liberation from TCO-CMR, HUVECs; type: cell-based; conditions: even in the presence of 500 μM 2
Protocol: Next, we tested the intracellular accumulation of Tz via EISA in an attempt to differentiate cancer cells from normal cells. First, we investigated the accumulation of Tz in HeLa cells and HUVECs over time via fluorescence liberation from TCO-CMR (Fig. 3a). Each group of cells was pre-incubated with different concentrations of 2 ranging from 100 to 500 μM for 1, 2, 4, 6, 15 or 24 h. The cells were then washed with PBS thoroughly before the addition of an excessive amount of TCO-CMR (100 μL, 50 μM), and the reaction of TCO-CMR with the intracellular accumulated Tz was allowed to proceed for up to 24 h (Supplementary Fig. 8). In this experimental setting, the total liberated fluorescence was proportional to the amount of 3 accumulated inside the cells. […] Therefore, the optimized concentration of 2 (e.g. 500 μM) and incubation time (e.g. 6 h) were selected to differentiate between cancer and normal cells according to liberated fluorescence intensity (Fig. 3c). […]
All cells were purchased from the National Infrastructure of Cell Line Resource (Beijing, China). […] After incubation for different durations (1–24 h), the cells were rinsed with PBS, and then 100 μL of 50 μM TCO-CMR (dissolved in PBS) was added for real-time detection of the fluorescence intensity of coumarin in a plate reader (Perkin Elmer).

## Cc1nnc(-c2ccc(CC(=O)NCCCCC(NC(=O)Cc3ccc4ccccc4c3)C(=O)NC(Cc3ccc(OP(=O)(O)O)cc3)C(=O)NC(Cc3ccccc3)C(=O)O)cc2)nn1 (stereo not drawn) [compound 2, NapK(Tz)YpF]
Saos-2 cells
  Surviving Fraction, Saos-2: 0±0%
CCC-HEH-2 cells
  Surviving Fraction, CCC-HEH-2: 92.2 ±8.3%
HUVECs
  liberated fluorescence in HUVECs: only a negligible amount of fluorescence
